Results published in the supplement of paper PMC11451515.

Columns and labels:
Settings in all cases: 48 h
SEM cells [1] = assay: cell viability relative to DMSO control; higher = less cytotoxic
Procedure, shortened: (§1)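 Leukemia cells (NOMO1 or SEM, 500 cells/well; P12-Ichikawa, 1000 cells/well) were seeded in 5 μl in 1536-well plates after at least four passages of adaptation to each medium. They received library compounds in DMSO by pin dosing, 11 threefold points from 47 μM to 0.79 nM. Luminescence with CellTiter-Glo One was read after 48 h at 37°C. Viability is stated per plate relative to DMSO wells, with cell-free wells as background.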

SEM cells [2] = assay: AUC of viability dose-response curve (% viability x log10 dose units); higher = less sensitive
Procedure, shortened: (§2)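 Medium-adapted leukemia cells in 1536-well plates, at 500 or 1000 cells/well, were incubated for 48 h at 37°C with library compounds in DMSO at 11 threefold doses from 47 μM to 0.79 nM. CellTiter-Glo One luminescence normalised per plate to DMSO and cell-free wells was fitted with a four-parameter log-logistic model over log10 doses. Area under the curve was integrated from this fit by trapezoidal rule, with curves beyond full viability scaled and failed quality-control curves removed.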

P12-Ichikawa [3] = assay: as above
Procedure, shortened: as §2

NOMO1 [4] = assay: as above
Procedure, shortened: as §2

P12-Ichikawa [5] = assay: cell viability relative to DMSO control; higher = less cytotoxic
Procedure, shortened: as §1

NOMO1 [6] = assay: as above
Procedure, shortened: as §1

CN[C@H](CC(C)C)C(=O)N[C@H]1C(=O)N[C@@H](CC(N)=O)C(=O)N[C@H]2C(=O)N[C@H]3C(=O)N[C@H](C(=O)N[C@H](C(=O)O)c4cc(O)cc(O)c4-c4cc3ccc4O)[C@H](O)c3ccc(c(Cl)c3)Oc3cc2cc(c3O[C@@H]2O[C@H](CO)[C@@H](O)[C@H](O)[C@H]2O[C@H]2C[C@](C)(N)[C@H](O)[C@H](C)O2)Oc2ccc(cc2Cl)[C@H]1O
cell viability [%], SEM cells [1]
Settings | HPLM + 10% dialyzed FBS | RPMI 5 mM glucose + 10% FBS | RPMI 5 mM glucose + 10% dialyzed FBS
0.000781 µM | 94.2 | 127 | 112
0.00234 µM | 94.3 | 114 | 126
0.00702 µM | 124 | 120 | 125
0.0211 µM | 112 | 130 | 138
0.0632 µM | 125 | 144 | 126
0.19 µM | 111 | 143 | 114
0.569 µM | 128 | 148 | 131
1.71 µM | 89 | 126 | 95.9
5.12 µM | 126 | 138 | 138
15.4 µM | 129 | 131 | 118
46.1 µM | 122 | 142 | 110

AUC of viability dose-response curve
Settings | NOMO1 [4] | P12-Ichikawa [3] | SEM cells [2]
HPLM + 10% dialyzed FBS | 439 | 457 | 463
RPMI 5 mM glucose + 10% FBS | 468 | 462 | 458
RPMI 5 mM glucose + 10% dialyzed FBS | 475 | 454 | 473

NC/1=N/C(=O)N/C=C1F
SEM cells [1], HPLM + 10% dialyzed FBS
Settings | cell viability [%]
0.000781 µM | 118
0.00234 µM | 145
0.00702 µM | 123
0.0211 µM | 134
0.0632 µM | 118
0.19 µM | 125
0.569 µM | 125
1.71 µM | 136
5.12 µM | 130
15.4 µM | 120
46.1 µM | 103

AUC of viability dose-response curve
Settings | NOMO1 [4] | P12-Ichikawa [3] | SEM cells [2]
HPLM + 10% dialyzed FBS | 417 | 455 | 468
RPMI 5 mM glucose + 10% FBS | 432 | 438 | 464
RPMI 5 mM glucose + 10% dialyzed FBS | 405 | 432 | 429

C[C@]\1(CCS\C(=N1)N)C2=CC(=C(F)C=C2F)C3=CN=CN=C3
cell viability [%]
Settings | NOMO1 [6] | P12-Ichikawa [5] | SEM cells [1]
HPLM + 10% dialyzed FBS, 0.000781 µM | 95.4 | 98.2 | 80
HPLM + 10% dialyzed FBS, 0.00234 µM | 106 | 101 | 95.5
HPLM + 10% dialyzed FBS, 0.00702 µM | 103 | 112 | 91.6
HPLM + 10% dialyzed FBS, 0.0211 µM | 95.2 | 103 | 94.5
HPLM + 10% dialyzed FBS, 0.0632 µM | 118 | 110 | 90.4
HPLM + 10% dialyzed FBS, 0.19 µM | 112 | 115 | 94.6
HPLM + 10% dialyzed FBS, 0.569 µM | 98.2 | 115 | 108
HPLM + 10% dialyzed FBS, 1.71 µM | 91.3 | 122 | 99.3
HPLM + 10% dialyzed FBS, 5.12 µM | 38.1 | 106 | 102
HPLM + 10% dialyzed FBS, 15.4 µM | 25 | 15.2 | 102
HPLM + 10% dialyzed FBS, 46.1 µM | 3.54 | 2.53 | 29.3
RPMI 5 mM glucose + 10% FBS, 0.000781 µM | 105 | 99.3 | 92
RPMI 5 mM glucose + 10% FBS, 0.00234 µM | 107 | 103 | 84.1
RPMI 5 mM glucose + 10% FBS, 0.00702 µM | 101 | 119 | 98
RPMI 5 mM glucose + 10% FBS, 0.0211 µM | 100 | 117 | 104
RPMI 5 mM glucose + 10% FBS, 0.0632 µM | 98 | 113 | 106
RPMI 5 mM glucose + 10% FBS, 0.19 µM | 101 | 114 | 95.7
RPMI 5 mM glucose + 10% FBS, 0.569 µM | 100 | 121 | 96.6
RPMI 5 mM glucose + 10% FBS, 1.71 µM | 60.6 | 113 | 114
RPMI 5 mM glucose + 10% FBS, 5.12 µM | 20.3 | 117 | 71.2
RPMI 5 mM glucose + 10% FBS, 15.4 µM | 20.1 | 30.2 | 5.19
RPMI 5 mM glucose + 10% FBS, 46.1 µM | 15 | 8.85 | 2.28
RPMI 5 mM glucose + 10% dialyzed FBS, 0.000781 µM | 80.4 | 92.1 | 95.1
RPMI 5 mM glucose + 10% dialyzed FBS, 0.00234 µM | 107 | 109 | 80.4
RPMI 5 mM glucose + 10% dialyzed FBS, 0.00702 µM | 98.5 | 104 | 107
RPMI 5 mM glucose + 10% dialyzed FBS, 0.0211 µM | 103 | 109 | 111
RPMI 5 mM glucose + 10% dialyzed FBS, 0.0632 µM | 109 | 110 | 103
RPMI 5 mM glucose + 10% dialyzed FBS, 0.19 µM | 106 | 108 | 96.4
RPMI 5 mM glucose + 10% dialyzed FBS, 0.569 µM | 100 | 101 | 101
RPMI 5 mM glucose + 10% dialyzed FBS, 1.71 µM | 96.2 | 98.6 | 108
RPMI 5 mM glucose + 10% dialyzed FBS, 5.12 µM | 26.4 | 99.8 | 95.8
RPMI 5 mM glucose + 10% dialyzed FBS, 15.4 µM | 19.8 | 62 | 51.3
RPMI 5 mM glucose + 10% dialyzed FBS, 46.1 µM | 22.5 | 13.4 | 2.95

AUC of viability dose-response curve
Settings | NOMO1 [4] | P12-Ichikawa [3] | SEM cells [2]
HPLM + 10% dialyzed FBS | 378 | 411 | 441
RPMI 5 mM glucose + 10% FBS | 359 | 420 | 390
RPMI 5 mM glucose + 10% dialyzed FBS | 383 | 435 | 429

CC(C)(C)/[N+]([O-])=C/c1ccc([S+](=O)([O-])[O][Na])cc1[S+](=O)([O-])[O][Na]
cell viability [%]
Settings | NOMO1 [6] | P12-Ichikawa [5] | SEM cells [1]
HPLM + 10% dialyzed FBS, 0.000781 µM | 97.5 | 110 | 88.7
HPLM + 10% dialyzed FBS, 0.00234 µM | 102 | 114 | 76.3
HPLM + 10% dialyzed FBS, 0.00702 µM | 111 | 112 | 84.5
HPLM + 10% dialyzed FBS, 0.0211 µM | 115 | 122 | 99.9
HPLM + 10% dialyzed FBS, 0.0632 µM | 121 | 117 | 84.6
HPLM + 10% dialyzed FBS, 0.19 µM | 132 | 131 | 98.6
HPLM + 10% dialyzed FBS, 0.569 µM | 121 | 127 | 101
HPLM + 10% dialyzed FBS, 1.71 µM | 128 | 125 | 90.3
HPLM + 10% dialyzed FBS, 5.12 µM | 129 | 121 | 88.1
HPLM + 10% dialyzed FBS, 15.4 µM | 119 | 119 | 99.2
HPLM + 10% dialyzed FBS, 46.1 µM | 127 | 133 | 94.9
RPMI 5 mM glucose + 10% FBS, 0.000781 µM | 105 | 108 | 115
RPMI 5 mM glucose + 10% FBS, 0.00234 µM | 118 | 96.5 | 83.1
RPMI 5 mM glucose + 10% FBS, 0.00702 µM | 119 | 108 | 86.9
RPMI 5 mM glucose + 10% FBS, 0.0211 µM | 126 | 111 | 109
RPMI 5 mM glucose + 10% FBS, 0.0632 µM | 125 | 120 | 105
RPMI 5 mM glucose + 10% FBS, 0.19 µM | 118 | 123 | 124
RPMI 5 mM glucose + 10% FBS, 0.569 µM | 125 | 127 | 110
RPMI 5 mM glucose + 10% FBS, 1.71 µM | 128 | 122 | 108
RPMI 5 mM glucose + 10% FBS, 5.12 µM | 111 | 126 | 116
RPMI 5 mM glucose + 10% FBS, 15.4 µM | 138 | 124 | 91.2
RPMI 5 mM glucose + 10% FBS, 46.1 µM | 133 | 122 | 108
RPMI 5 mM glucose + 10% dialyzed FBS, 0.000781 µM | 94 | 108 | 95.7
RPMI 5 mM glucose + 10% dialyzed FBS, 0.00234 µM | 102 | 114 | 105
RPMI 5 mM glucose + 10% dialyzed FBS, 0.00702 µM | 111 | 114 | 102
RPMI 5 mM glucose + 10% dialyzed FBS, 0.0211 µM | 114 | 121 | 94.1
RPMI 5 mM glucose + 10% dialyzed FBS, 0.0632 µM | 111 | 113 | 98.8
RPMI 5 mM glucose + 10% dialyzed FBS, 0.19 µM | 120 | 120 | 120
RPMI 5 mM glucose + 10% dialyzed FBS, 0.569 µM | 127 | 124 | 117
RPMI 5 mM glucose + 10% dialyzed FBS, 1.71 µM | 109 | 123 | 104
RPMI 5 mM glucose + 10% dialyzed FBS, 5.12 µM | 109 | 120 | 113
RPMI 5 mM glucose + 10% dialyzed FBS, 15.4 µM | 123 | 119 | 105
RPMI 5 mM glucose + 10% dialyzed FBS, 46.1 µM | 120 | 116 | 110

AUC of viability dose-response curve
Settings | NOMO1 [4] | P12-Ichikawa [3] | SEM cells [2]
HPLM + 10% dialyzed FBS | 451 | 461 | 438
RPMI 5 mM glucose + 10% FBS | 445 | 451 | 461
RPMI 5 mM glucose + 10% dialyzed FBS | 459 | 469 | 453
